# Measured values published in the supplement of paper PMC8967900.
# Key:
# Experiment in all cases: selective drug sensitivity score (sDSS, relative to normal bone marrow) (sDSS (score)); higher = more potent and effective on the cell line relative to normal bone marrow cells
# Details in all cases: 72 h
# PEER = tested on: PEER
# SUP-B15 = tested on: SUP-B15
# KARPAS-45 = tested on: KARPAS-45
# NALL-1 = tested on: NALL-1
# LC4-1 = tested on: LC4-1
# JURKAT = tested on: JURKAT
# COG-LL-319h = tested on: COG-LL-319h
# P12-ICHIKAWA = tested on: P12-ICHIKAWA
# TANOUE = tested on: TANOUE
# HAL-01 = tested on: HAL-01
# MOLT-4 = tested on: MOLT-4
# P30-OHKUBO = tested on: P30-OHKUBO
# MHH-CALL-3 = tested on: MHH-CALL-3
# CCRF-HSB2 = tested on: CCRF-HSB2
# MN-60 = tested on: MN-60
# TMD5 = tested on: TMD5
# SEM cells = tested on: SEM cells
# COG-LL-317 = tested on: COG-LL-317
# COG-LL-332h = tested on: COG-LL-332h
# ALL-PO = tested on: ALL-PO
# 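Further: ALL cell lines in 384-well plates, five doses spanning 10,000-fold, each plate scaled between vehicle and 100 µmol/L benzalkonium chloride controls, sDSS an adapted area-under-curve metric.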
SMILES,selective drug sensitivity score (PEER),selective drug sensitivity score (SUP-B15),selective drug sensitivity score (KARPAS-45),selective drug sensitivity score (NALL-1),selective drug sensitivity score (LC4-1),selective drug sensitivity score (JURKAT),selective drug sensitivity score (COG-LL-319h),selective drug sensitivity score (P12-ICHIKAWA),selective drug sensitivity score (TANOUE),selective drug sensitivity score (HAL-01),selective drug sensitivity score (MOLT-4),selective drug sensitivity score (P30-OHKUBO),selective drug sensitivity score (MHH-CALL-3),selective drug sensitivity score (CCRF-HSB2),selective drug sensitivity score (MN-60),selective drug sensitivity score (TMD5),selective drug sensitivity score (SEM cells),selective drug sensitivity score (COG-LL-317),selective drug sensitivity score (COG-LL-332h),selective drug sensitivity score (ALL-PO)
COc1cc(CCc2cc(NC(=O)c3ccc(N4CC(C)NC(C)C4)cc3)n[nH]2)cc(OC)c1 (stereo not given) [AZD4547] (top concentration 1000 nM),-0.14,-0.14,-0.14,-0.14,0.66,-0.14,-0.04,-0.14,-0.14,-0.14,-0.14,-0.14,-0.14,-0.14,-0.14,-0.14,0.36,-0.14,-0.04,0.46
CN(C)C(=O)c1ccc(S(=O)(=O)c2ccc(NC(=O)[C@@](C)(O)C(F)(F)F)c(Cl)c2)cc1 [AZD7545] (top concentration 10000 nM),6.2,4.9,2.9,-0.2,1.6,7,0.8,2.7,3.4,-0.2,1.6,0.6,0.1,1.3,3.3,-0.2,0.6,0.7,0.5,2.6
COc1cc(C)c(/C=C/C(C)=C/C=C/C(C)=C/C(=O)O)c(C)c1C [Acitretin] (top concentration 10000 nM),-0.6,-1.6,0.2,-1.6,-0.9,-1.2,-1.6,-0.8,-1.6,-1.6,-1.2,-1.6,-0.2,0,-1.6,-1.6,0.4,-0.5,0,-0.3
CCC1(c2ccc(N)cc2)CCC(=O)NC1=O (stereo not given) [Aminoglutethimide] (top concentration 10000 nM),0,0,0,0,0,0,0,0,0,0,0,0,0,0,0,0,0.3,0,0,0
CNC(=O)c1ccc(N2C(=S)N(c3cnc(C#N)c(C(F)(F)F)c3)C(=O)C23CCC3)cc1F [Apalutamide] (top concentration 10000 nM),0.1,0,0,0,0,0,0,0,0.1,0,0,0,0,0,0,0,0,0,0,0
N#CC1(c2ccc(NC(=O)c3cccnc3NCc3ccncc3)cc2)CCCC1 [Apatinib] (top concentration 10000 nM),2.2,0.1,0,0,1.2,0,0.6,0,0,0,0,0,0,0.3,0,0,1,0,0,2.4
Cc1nc2cccc(N)c2c(=O)n1C1CCC(=O)NC1=O (stereo not given) [Avadomide (CC122)] (top concentration 10000 nM),0,0,0,0,3.5,0,0,0,0,1.6,0,5.9,0,0,2.3,3.5,0.9,0,0,0
Nc1nc(Nc2ccc3c(c2)CC[C@@H](N2CCCC2)CC3)nn1-c1cc2c(nn1)-c1ccccc1CCC2 [BGB324] (top concentration 10000 nM),4.42,3.02,1.92,-2.68,1.52,1.02,0.22,0.02,-3.88,-1.58,3.22,5.82,-0.98,2.32,-2.48,-2.98,5.72,-0.38,2.22,6.02
CC1(C)C(C(=O)Nc2ccc(S(=O)(=O)c3ccc(NC(=O)C4C(C)(C)C4(C)C)cc3)cc2)C1(C)C [BRD7116] (top concentration 10000 nM),-0.14,-0.14,-0.04,-0.24,1.76,1.76,1.26,0.66,-0.24,3.36,0.66,4.46,-0.24,0.16,-0.04,0.66,-0.24,-0.24,-0.24,-0.24
